Some test systems named below: DLD-1; DMS-114; KM-20L2; OVCAR-3; MDA-MB-435; DU-145; RXF 631; BT-549.
Common to all, as to assay: DTP human tumour cell line panel, 48 h

SMILES strings stand for the structures.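 Where inhibition never reached the appropriate level, the endpoint shown equals the highest concentration tested. Otherwise, values were interpolated linearly from a five-concentration, 48-hour dose response in 96-well plates. GI50 marks 50% less growth.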 Activity calls are given as the source filed them. No stated cut-off is given here; in the data, active = GI50 up to about 1.1 µM and inactive = higher.

Broadly, the GI50 is the concentration at which growth is held to half of that of the control. Regarding `CN(CCO)/N=N/c1[nH]cnc1C(N)=O`, the GI50 with DLD-1, with DMS-114, in the assay on KM-20L2 and in the assay with OVCAR-3 was > 100 µM (inactive) each time.

For the compound `CC(=O)Nc1ccc(Sc2nnc(NC(C)=O)s2)cc1`, in the assay on MDA-MB-435, the GI50 is > 100 µM (inactive).

`CN(C)CCCNC(=O)N/N=C\c1cccc2ccccc12`: in the assay with DU-145, the GI50 was > 10 µM (inactive).

`COc1cc(C2c3cc4c(cc3[C@@H](Nc3ccccc3)C3COC(=O)[C@H]23)OCO4)cc(OC)c1O` (some centres undefined): the GI50 is 1.66 µM (inactive) with DLD-1, 0.687 µM (active) in the assay on DMS-114, 2.1 µM (inactive) in the assay with KM-20L2 and 2.48 µM (inactive) with OVCAR-3.

Consider `N#CCCN(CCC#N)c1ccc(/C=C(/NC(=O)Nc2ccccc2Cl)NC(=O)c2cc([N+](=O)[O-])ccc2Cl)cc1`, for which the GI50 in the assay with DLD-1 is 56.1 µM (inactive); in the assay on DMS-114, > 100 µM (inactive); in the assay on KM-20L2, > 100 µM (inactive); in the assay on OVCAR-3, > 100 µM (inactive); with RXF 631, > 100 µM (inactive).

As for `C=C(C)C1Cc2c(c3ccccc3n(C)c2=O)O1` (centres undefined), the GI50 with DLD-1, with DMS-114, with KM-20L2, in the assay on OVCAR-3 and with RXF 631 was > 100 µM (inactive) each time.

In the case of `Brc1ccc2c(c1)[C@H]1CCc3c([nH]c4ccccc34)[C@H]1N2`, the GI50 in the assay on BT-549 was 18.4 µM (inactive); in the assay with DU-145, 12.9 µM (inactive); in the assay with MDA-MB-435, 13.4 µM (inactive); in the assay on OVCAR-3, 10.6 µM (inactive).

Source of the values: ChEMBL document CHEMBL1201862, “PubChem BioAssay data set” (2004).
